Assay results published in ChEMBL document CHEMBL1201862, “PubChem BioAssay data set” (2004).
The source made the active and inactive calls.

Columns and labels:
[1] = target: Cytochrome P450 2C9 (Homo sapiens, UniProt P11712)
[2] = test system: BJ; assay: cytotoxicity toward Ras-transformed BJeLR fibroblasts, dose response, cell-based, alamar blue fluorescence, cherrypicked samples (AID 2631); assay type: functional; settings: Homo sapiens;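 also: confirmatory dose-response assay in RAS-dependent BJ fibroblasts engineered with TERT, LT and ST, with cytotoxicity read by fluorescence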
[3] = test system: BJ; assay: cells; assay type: functional, cell-based; settings: Homo sapiens
[4] = target: Cytochrome P450 2C19 (Homo sapiens, UniProt P33261); assay: Cytochrome panel assay with activity outcomes. Panel member name: p450-cyp2c19 Compounds with AC50 equal or less than 10 uM are considered active; assay type: functional; settings: read-out: AC50
Sequence of Cytochrome P450 2C19 (P33261 whole entry): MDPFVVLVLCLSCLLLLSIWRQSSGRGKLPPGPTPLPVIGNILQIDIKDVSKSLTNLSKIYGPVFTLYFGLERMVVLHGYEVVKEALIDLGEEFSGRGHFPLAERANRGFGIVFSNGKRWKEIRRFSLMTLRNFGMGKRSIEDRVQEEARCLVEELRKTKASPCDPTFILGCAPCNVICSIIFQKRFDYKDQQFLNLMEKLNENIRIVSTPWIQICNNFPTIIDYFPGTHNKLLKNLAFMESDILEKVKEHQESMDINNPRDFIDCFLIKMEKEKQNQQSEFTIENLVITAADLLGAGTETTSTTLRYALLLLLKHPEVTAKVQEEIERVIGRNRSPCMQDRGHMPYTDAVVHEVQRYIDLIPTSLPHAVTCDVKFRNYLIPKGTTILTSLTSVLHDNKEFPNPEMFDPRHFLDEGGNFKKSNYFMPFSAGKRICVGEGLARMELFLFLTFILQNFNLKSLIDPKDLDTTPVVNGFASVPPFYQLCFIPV

[5] = test system: BJ; assay: cytotoxicity toward BJ-TERT-LT-ST fibroblasts, dose response, cell-based, RAS-independent, luminescence (AID 1935); assay type: functional; settings: Homo sapiens;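 also: BJ fibroblasts immortalized with TERT plus LT and ST oncogenes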
[6] = test system: INS1; assay: beta cell apoptosis inhibitors, cytokine rescue, dose response, luminescence, retest (AID 449756); assay type: functional, cell-based; settings: Rattus norvegicus;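 also: cell death triggered by IL-1 beta plus TNF-alpha plus IFN-gamma mixture; protective hits raise ATP signal compared with cytokine alone wells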
[7] = test system: BJ; assay: cytotoxicity toward BJ-TERT fibroblasts, dose response, cell-based, RAS-independent, luminescence (AID 1933); assay type: functional; settings: Homo sapiens
[8] = cytotoxicity toward DRD oncogenic fibroblasts, dose response, cell-based, non-viral oncogenic, luminescence (AID 1934); assay type: functional; settings: Homo sapiens
[9] = target: T1, Endoribonuclease toxin MazF (Escherichia coli K-12, UniProt P0AE70); assay: SAR analysis of small molecule activators of the MazEF TA System via a fluorescence-based single-stranded RNase assay counterscreen. [Related pubchem assays (depositor defined):AID504720, AID504743]; assay type: functional
T1 sequence (P0AE70 whole entry): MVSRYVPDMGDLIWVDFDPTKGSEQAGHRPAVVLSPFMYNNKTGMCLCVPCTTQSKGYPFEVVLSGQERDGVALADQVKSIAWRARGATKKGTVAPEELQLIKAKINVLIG

[10] = test system: MEF; assay: SAR analysis of small molecule cytotoxicity of MazEF TA System activators in embryonic fibroblast (MEF) cells. [Related pubchem assays (depositor defined):AID504720, AID504743]; assay type: functional; settings: Mus musculus
[11] = target: T1, Endoribonuclease toxin MazF; assay: MazF toxin RNase activators, dose response, biochemical, fluorescence, single-stranded RNA substrate, uHTS hits (AID 588481); assay type: functional
[12] = target: T1, Endoribonuclease toxin MazF; assay: fluorescent RNA oligo signal without MazF, dose response, counter-screen for MazEF activator project, biochemical, fluorescence, single-stranded RNase substrate (AID 588502); assay type: functional
[13] = target: T1, Endoribonuclease toxin MazF; assay: MazF endoribonuclease activators, SAR follow-up, biochemical, fluorescence, single-stranded RNA substrate (AID 588603); assay type: functional
[14] = target: Serine/threonine-protein kinase PLK4 (Homo sapiens, UniProt O00444); assay type: functional;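 also: PLK4 measured as one member of a kinome-wide kinase profiling panel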
Sequence of Serine/threonine-protein kinase PLK4 (O00444 whole entry): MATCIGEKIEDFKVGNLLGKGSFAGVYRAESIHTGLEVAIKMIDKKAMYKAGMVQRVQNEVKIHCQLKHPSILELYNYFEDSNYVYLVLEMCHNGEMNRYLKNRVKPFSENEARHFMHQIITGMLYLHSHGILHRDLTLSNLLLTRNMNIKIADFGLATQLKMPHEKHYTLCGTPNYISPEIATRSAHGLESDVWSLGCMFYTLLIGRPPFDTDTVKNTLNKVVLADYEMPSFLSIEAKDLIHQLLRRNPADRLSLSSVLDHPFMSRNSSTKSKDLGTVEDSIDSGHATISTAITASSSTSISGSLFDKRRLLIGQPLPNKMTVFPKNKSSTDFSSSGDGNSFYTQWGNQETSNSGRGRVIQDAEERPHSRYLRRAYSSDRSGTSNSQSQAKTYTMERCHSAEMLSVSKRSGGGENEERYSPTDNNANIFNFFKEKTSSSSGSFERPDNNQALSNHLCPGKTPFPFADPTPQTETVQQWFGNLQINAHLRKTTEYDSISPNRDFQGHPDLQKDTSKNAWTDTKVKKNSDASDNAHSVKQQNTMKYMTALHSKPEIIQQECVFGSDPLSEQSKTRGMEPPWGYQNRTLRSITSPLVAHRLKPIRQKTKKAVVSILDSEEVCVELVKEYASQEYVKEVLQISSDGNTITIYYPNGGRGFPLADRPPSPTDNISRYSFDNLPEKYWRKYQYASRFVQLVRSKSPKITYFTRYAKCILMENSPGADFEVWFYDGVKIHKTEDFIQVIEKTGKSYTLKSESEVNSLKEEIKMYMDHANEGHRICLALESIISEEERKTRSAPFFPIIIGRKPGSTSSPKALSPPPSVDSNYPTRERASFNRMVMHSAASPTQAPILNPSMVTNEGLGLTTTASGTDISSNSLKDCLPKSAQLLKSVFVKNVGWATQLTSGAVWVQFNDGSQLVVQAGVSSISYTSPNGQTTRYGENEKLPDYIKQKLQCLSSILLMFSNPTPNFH

[15] = target: Interleukin-1 receptor-associated kinase 1 (Homo sapiens, UniProt P51617); assay type: functional;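 also: IRAK1 tested as one member of a kinome panel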
[16] = target: Serine/threonine-protein kinase PLK3 (Homo sapiens, UniProt Q9H4B4); assay type: functional
Sequence of Serine/threonine-protein kinase PLK3 (Q9H4B4 whole entry): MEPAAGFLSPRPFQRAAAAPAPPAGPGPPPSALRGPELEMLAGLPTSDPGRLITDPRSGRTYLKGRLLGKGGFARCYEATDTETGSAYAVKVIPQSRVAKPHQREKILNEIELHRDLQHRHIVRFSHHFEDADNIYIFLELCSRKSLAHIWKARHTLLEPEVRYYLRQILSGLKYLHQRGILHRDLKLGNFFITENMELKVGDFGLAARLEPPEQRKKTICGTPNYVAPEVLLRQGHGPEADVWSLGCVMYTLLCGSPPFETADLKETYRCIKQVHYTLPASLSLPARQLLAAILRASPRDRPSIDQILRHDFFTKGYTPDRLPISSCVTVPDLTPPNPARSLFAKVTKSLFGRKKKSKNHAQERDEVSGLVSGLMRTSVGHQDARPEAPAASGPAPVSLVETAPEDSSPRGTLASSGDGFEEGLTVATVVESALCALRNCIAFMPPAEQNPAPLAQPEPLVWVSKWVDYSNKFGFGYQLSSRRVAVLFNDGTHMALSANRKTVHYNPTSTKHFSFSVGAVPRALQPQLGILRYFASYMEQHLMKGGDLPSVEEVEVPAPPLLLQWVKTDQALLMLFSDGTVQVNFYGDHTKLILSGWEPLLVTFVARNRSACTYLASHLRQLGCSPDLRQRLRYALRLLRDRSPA

[17] = target: Beta-2 adrenergic receptor (Homo sapiens, UniProt P07550); assay: beta2AR agonists driving receptor internalization, dose response, cell-based, FAP fluorogen, flow cytometry, cherry pick 1 (AID 588763); assay type: functional
Sequence of Beta-2 adrenergic receptor (P07550 whole entry): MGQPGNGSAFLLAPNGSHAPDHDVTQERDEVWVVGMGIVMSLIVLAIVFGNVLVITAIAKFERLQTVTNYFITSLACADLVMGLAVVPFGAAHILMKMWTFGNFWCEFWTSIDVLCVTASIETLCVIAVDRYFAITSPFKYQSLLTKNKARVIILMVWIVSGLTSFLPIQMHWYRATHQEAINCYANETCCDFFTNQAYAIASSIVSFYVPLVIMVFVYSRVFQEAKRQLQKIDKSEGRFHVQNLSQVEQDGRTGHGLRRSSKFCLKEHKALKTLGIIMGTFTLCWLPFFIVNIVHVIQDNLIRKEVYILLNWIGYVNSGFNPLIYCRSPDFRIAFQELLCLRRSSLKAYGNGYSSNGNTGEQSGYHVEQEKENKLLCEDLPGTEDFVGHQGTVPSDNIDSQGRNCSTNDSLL

[18] = target: T2, High affinity choline transporter 1 (Homo sapiens, UniProt Q9GZV3); assay: CHT activators, dose response, cell-based, 10-point CRC, membrane potential dye (AID 602376); assay type: functional
T2 sequence (Q9GZV3 whole entry): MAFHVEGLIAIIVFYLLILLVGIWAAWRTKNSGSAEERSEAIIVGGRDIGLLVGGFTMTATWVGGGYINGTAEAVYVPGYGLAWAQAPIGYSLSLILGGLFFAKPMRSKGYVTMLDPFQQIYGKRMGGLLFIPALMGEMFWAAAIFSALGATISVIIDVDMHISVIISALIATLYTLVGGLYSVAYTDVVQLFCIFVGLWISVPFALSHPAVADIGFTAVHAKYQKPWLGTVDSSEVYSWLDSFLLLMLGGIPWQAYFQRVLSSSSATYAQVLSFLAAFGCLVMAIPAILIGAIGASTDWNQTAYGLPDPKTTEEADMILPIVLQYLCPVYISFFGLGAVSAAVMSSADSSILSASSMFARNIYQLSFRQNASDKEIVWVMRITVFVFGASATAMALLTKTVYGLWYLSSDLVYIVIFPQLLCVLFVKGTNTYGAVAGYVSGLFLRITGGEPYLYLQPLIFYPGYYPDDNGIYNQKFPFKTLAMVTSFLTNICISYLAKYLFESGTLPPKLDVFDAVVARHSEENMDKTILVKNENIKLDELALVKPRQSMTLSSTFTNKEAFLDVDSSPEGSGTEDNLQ

[19] = Vero cell cytotoxicity, dose response, cytotoxicity control for M. tuberculosis growth inhibitor project, Vero cells, purified and synthesized compounds, set 4 (AID 504854); assay type: functional; settings: Mycobacterium tuberculosis
[20] = THP-1 cell cytotoxicity, dose response, cytotoxicity control, set 3 (AID 504852); assay type: functional; settings: Mycobacterium tuberculosis
[21] = THP-1 cell cytotoxicity, cytotoxicity control, set 4 (AID 504911); assay type: functional; settings: Mycobacterium tuberculosis
[22] = test system: INS1; assay: protection from cytokine-induced mitochondrial depolarization, dose response, cell-based, INS-1E, JC-1 fluorescence ratio, dry powder (AID 488931); assay type: functional; settings: Rattus norvegicus
[23] = inhibitors of cytokine-induced nitrite release, dose response, cell-based, Griess absorbance, INS-1E, dry powder, set 3 (AID 488870); assay type: functional; settings: Rattus norvegicus
[24] = test system: INS1; assay: protection of INS-1E cells from cytokine death, dose response, ATP luminescence, dry powder (AID 488844); assay type: functional, cell-based; settings: Rattus norvegicus
[25] = test system: INS1; assay: inhibitors of cytokine-induced nitrite release, dose response, cell-based, Griess absorbance, INS-1E, dry powder (AID 488866); assay type: functional; settings: Rattus norvegicus
[26] = test system: INS1; assay: inhibitors of cytokine-induced nitrite release, dose response, cell-based, Griess absorbance, INS-1E, dry powder, set 2 (AID 488868); assay type: functional; settings: Rattus norvegicus
[27] = target: Nonstructural protein 1 (Influenza A virus, UniProt Q194T2); assay type: functional, Influenza A virus (A/California/07/2009(H1N1))
Sequence of Nonstructural protein 1 (Q194T2 whole entry): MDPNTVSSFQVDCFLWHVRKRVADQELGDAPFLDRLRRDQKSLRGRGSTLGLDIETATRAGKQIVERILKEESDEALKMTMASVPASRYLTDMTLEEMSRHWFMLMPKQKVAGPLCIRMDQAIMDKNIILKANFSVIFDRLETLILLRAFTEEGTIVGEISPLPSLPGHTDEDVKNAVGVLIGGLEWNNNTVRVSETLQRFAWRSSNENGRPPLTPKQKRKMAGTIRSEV

[28] = target: 5-hydroxytryptamine receptor 5A (Homo sapiens, UniProt P47898); assay: Counterscreen for agonists of OPRM1-OPRD1 heterodimerization: luminescence-based cell-based high throughput dose response assay to identify agonists of 5-hydroxytryptamine (serotonin) 5A receptor (HTR5A). [Related pubchem assays (depositor defined):AID504326, AID504355, AID504692, AID504904, AID504905]; assay type: functional
Sequence of 5-hydroxytryptamine receptor 5A (P47898 whole entry): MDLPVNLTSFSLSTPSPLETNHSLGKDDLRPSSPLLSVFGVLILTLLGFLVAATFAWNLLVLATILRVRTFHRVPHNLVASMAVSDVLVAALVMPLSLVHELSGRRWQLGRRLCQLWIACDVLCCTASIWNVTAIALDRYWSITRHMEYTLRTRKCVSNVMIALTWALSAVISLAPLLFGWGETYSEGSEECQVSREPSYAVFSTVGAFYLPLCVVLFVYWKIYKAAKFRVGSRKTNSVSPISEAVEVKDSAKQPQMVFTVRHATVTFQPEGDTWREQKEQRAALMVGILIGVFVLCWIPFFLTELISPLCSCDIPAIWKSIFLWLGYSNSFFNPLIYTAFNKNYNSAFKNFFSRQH

[29] = target: Delta-type opioid receptor (Homo sapiens, UniProt P41143); assay: Counterscreen for agonists of heterodimerization of the mu 1 (OPRM1) and delta 1 (OPRD1) opioid receptors: Luminescence-based cell-based high throughput dose response assay to identify agonists of OPRD1 homodimerization. [Related pubchem assays (depositor defined):AID504326, AID504355, AID504692, AID504904, AID504905]; assay type: functional
Sequence of Delta-type opioid receptor (P41143 whole entry): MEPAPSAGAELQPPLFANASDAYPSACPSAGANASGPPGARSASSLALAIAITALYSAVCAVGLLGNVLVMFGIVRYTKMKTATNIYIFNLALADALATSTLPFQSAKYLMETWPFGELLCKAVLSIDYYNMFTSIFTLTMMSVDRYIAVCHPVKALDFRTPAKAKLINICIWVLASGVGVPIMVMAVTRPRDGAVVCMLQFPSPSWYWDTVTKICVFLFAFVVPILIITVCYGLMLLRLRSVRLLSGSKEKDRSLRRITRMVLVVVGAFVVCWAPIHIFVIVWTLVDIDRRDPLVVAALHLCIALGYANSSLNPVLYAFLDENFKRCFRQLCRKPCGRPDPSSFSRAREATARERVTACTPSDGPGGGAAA

[30] = test system: MDCK; assay: MDCK cell cytotoxicity, dose response, cytotoxicity control (AID 540296); assay type: functional; settings: Canis lupus familiaris
[31] = target: Heat shock protein HSP 90-alpha (Homo sapiens, UniProt P07900); assay type: functional, organism-based
[32] = target: Mu-type opioid receptor (Homo sapiens, UniProt P35372); assay: Counterscreen for agonists of heterodimerization of the mu 1 (OPRM1) and delta 1 (OPRD1) opioid receptors: Luminescence-based cell-based high throughput dose response assay to identify agonists of OPRM1 homodimerization.; assay type: functional;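 also: U2OS cells expressing OPRM1 and beta-arrestin as split beta-galactosidase partners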
Sequence of Mu-type opioid receptor (P35372 whole entry): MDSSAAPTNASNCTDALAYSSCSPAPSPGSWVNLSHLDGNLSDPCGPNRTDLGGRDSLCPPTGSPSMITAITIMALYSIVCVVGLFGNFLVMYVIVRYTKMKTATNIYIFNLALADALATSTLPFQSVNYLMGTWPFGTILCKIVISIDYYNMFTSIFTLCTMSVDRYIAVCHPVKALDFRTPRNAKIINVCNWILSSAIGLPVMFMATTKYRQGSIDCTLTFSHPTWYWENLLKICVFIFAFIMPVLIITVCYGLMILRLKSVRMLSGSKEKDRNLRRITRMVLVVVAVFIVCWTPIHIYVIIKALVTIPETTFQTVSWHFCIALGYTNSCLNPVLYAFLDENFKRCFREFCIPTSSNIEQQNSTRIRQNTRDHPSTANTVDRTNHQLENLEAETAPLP

[33] = test system: Vero; assay: Vero E6 cell cytotoxicity, dose response, cytotoxicity control (AID 540298); assay type: functional; settings: Chlorocebus sabaeus
[34] = test system: MDCK; assay: antiviral activity against H1N1 influenza, dose response, cell-based, strain KY136 (AID 540257); assay type: functional; settings: Canis lupus familiaris
[35] = growth suppression of PTEN-null colon cells, dose response, cell-based, HCT116 PTEN knockout (AID 1047); assay type: functional;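 also: HCT116 colon tumor cells with PTEN knocked out; cells exposed to compound for 60 hours before readout; potency for loss of cell viability measured by luminescence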
[36] = growth suppression of beta-catenin-knockout colon cells, dose response, cell-based, HCT116, human colon tumor (AID 1045); assay type: functional;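 also: HCT116 colon tumor cells with beta catenin knocked out; cells exposed to compound for 60 hours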
[37] = THP-1 cell cytotoxicity, dose response, cytotoxicity control for Vif-APOBEC3G degradation inhibitor project, THP-1 cells (AID 1117359); assay type: functional; settings: Human immunodeficiency virus 1, THP-1
[38] = test system: Vero; assay: Vero cell cytotoxicity, cytotoxicity control for flavivirus capping enzyme inhibitors (AID 588742); assay type: functional; settings: Chlorocebus sabaeus
[39] = target: T3, Mannose-6-phosphate isomerase (Homo sapiens, UniProt P34949); assay: human PMI inhibitors, high substrate, primary screen, biochemical, fluorescence intensity, high mannose 6-phosphate (AID 1220)
T3 sequence (P34949 whole entry): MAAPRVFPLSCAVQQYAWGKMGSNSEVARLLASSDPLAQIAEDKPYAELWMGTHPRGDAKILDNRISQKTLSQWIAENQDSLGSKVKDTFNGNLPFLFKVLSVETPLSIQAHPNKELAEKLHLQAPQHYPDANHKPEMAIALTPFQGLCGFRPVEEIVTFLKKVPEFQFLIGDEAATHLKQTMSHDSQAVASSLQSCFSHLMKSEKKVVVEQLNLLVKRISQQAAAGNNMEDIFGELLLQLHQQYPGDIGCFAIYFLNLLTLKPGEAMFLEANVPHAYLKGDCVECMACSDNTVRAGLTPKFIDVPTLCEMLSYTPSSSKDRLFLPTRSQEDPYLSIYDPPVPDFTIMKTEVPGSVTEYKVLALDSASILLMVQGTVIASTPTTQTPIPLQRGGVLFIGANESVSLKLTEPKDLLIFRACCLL

[40] = target: Protein Tat (Human immunodeficiency virus type 1 group M subtype B (isolate HXB2)(HIV-1), UniProt P04608); assay type: functional;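 also: tat binding to TAR RNA read out by fluorescence polarization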
Sequence of Protein Tat (P04608 whole entry): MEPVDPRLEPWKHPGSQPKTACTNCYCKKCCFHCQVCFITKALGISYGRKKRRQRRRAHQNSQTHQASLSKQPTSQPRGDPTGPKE

[41] = target: Beta Lactamase (Pseudomonas aeruginosa, UniProt Q932Y6); assay: beta-lactamase reporter inhibitor potency, dose response, artefact control for TLR9-MyD88 binding inhibitor project, BLA reporter cells, FRET fluorescence (AID 588341); assay type: cell-based;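 also: cell based assay in CHO-K1 cells stably expressing beta-lactamase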
Sequence of Beta Lactamase (Q932Y6 whole entry, the tested form may be a part): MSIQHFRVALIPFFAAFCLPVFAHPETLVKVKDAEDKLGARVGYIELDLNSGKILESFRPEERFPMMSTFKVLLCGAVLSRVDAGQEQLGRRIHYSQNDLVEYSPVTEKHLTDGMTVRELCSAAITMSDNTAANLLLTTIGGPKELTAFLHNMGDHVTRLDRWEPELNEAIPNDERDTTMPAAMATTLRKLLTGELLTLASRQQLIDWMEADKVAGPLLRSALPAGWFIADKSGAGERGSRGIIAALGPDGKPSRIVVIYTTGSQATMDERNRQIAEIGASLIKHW

[42] = test system: CHO; assay: cytotoxicity in TLR9-MyD88 CHO cells, dose response, cytotoxicity control for TLR9-MyD88 binding inhibitor project, cell-based, luminescence (AID 588339); assay type: functional, hamster; settings: Cricetulus griseus;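 also: CHO cells stably coexpressing TLR9 and MyD88 fusions from primary screen; compound exposure lasted 48 hours before viability readout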

Sequence of Cytochrome P450 2C9 (P11712 whole entry): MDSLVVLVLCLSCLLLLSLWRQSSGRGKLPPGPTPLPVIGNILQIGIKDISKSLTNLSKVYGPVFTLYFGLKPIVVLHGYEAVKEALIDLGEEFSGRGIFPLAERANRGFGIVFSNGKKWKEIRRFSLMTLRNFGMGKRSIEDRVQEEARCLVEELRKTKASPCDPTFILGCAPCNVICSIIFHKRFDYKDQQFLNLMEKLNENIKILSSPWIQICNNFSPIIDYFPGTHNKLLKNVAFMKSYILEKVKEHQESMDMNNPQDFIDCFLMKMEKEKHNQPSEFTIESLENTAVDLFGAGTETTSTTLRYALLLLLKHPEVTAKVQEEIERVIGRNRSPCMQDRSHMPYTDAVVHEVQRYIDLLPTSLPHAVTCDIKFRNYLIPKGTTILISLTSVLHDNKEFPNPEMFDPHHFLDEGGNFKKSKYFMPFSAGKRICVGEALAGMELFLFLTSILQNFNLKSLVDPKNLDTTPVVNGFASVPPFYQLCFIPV

## O=C(COc1ccc([N+](=O)[O-])cc1)Nc1ccc(C(=O)NCc2cccnc2)cc1
[1]
  AC50: 22.4 µM (inconclusive)
[2]
  EC50: 2.51 µM (inconclusive)
[3]
  EC50: 12.8 µM (inconclusive)
[4]
  AC50: 7.94 µM (inconclusive)
[5]
  EC50: > 150 µM (not active)
[6]
  AC50: < 0.195 µM (active)
[7]
  EC50: > 150 µM (not active)
[8]
  EC50: > 150 µM (not active)

## N#Cc1ccc(N2C(=O)[C@@H]3C(C(=O)c4ccc5ccccc5n4)=NN[C@@H]3C2=O)cc1
[9]
  EC50: > 99 µM (inactive)
[10]
  CC50: > 99 µM (inactive)
[11]
  EC50: 15.1 µM (active)
[12]
  EC50: 0.271 µM (active)
[13]
  EC50: 7.74 µM (active)

## CCCn1c(=O)c2[nH]c(-c3cnn(Cc4cccc(C(F)(F)F)c4)c3)nc2n(CC)c1=O [GS 6201]
[14]
  Ki: 3.98 µM (active)
[15]
  Ki: 7.94 µM (active)
[16]
  Ki: 7.94 µM (active)

## O=C(Cc1ccccc1)NC1(Cc2ccc(O)cc2)CCCCC1
[17]
  EC50: 7.47 µM (active)

## CN(Cc1cccc(F)c1)C(=O)c1ccccc1Sc1ccccc1C#N
[18]
  EC50: 15 µM (active)

## COC(=O)C(C)Oc1ccc(Cc2ncc(C(F)(F)F)cc2Cl)cc1 (configuration not stated)
[19]
  CC50: > 100 µM (active)
[20]
  CC50: > 100 µM (active)
[21]
  CC50: > 100 µM (active)

## COc1ccc(S(=O)(=O)N(C)C[C@@H]2Oc3c(NC(=O)Nc4cccc5ccccc45)cccc3C(=O)N([C@@H](C)CO)C[C@H]2C)cc1Cl
[22]
  AC50: 147 µM (active)
[23]
  AC50: 52.8 µM (active)
[24]
  AC50: 27.3 µM (active)
[25]
  AC50: 46.3 µM (active)
[26]
  AC50: 39.5 µM (active)

## O=C(C=P(c1ccccc1)(c1ccccc1)c1ccccc1)c1ccccc1-c1ccccc1C(=O)C=P(c1ccccc1)(c1ccccc1)c1ccccc1
[27]
  IC50: 58.5 µM (active)
[28]
  EC50: > 92.5 µM (inactive)
[29]
  EC50: > 92.5 µM (inactive)
[30]
  CC50: 6.63 µM (active)
[31]
  AC50: 8.19 µM (active)
[32]
  EC50: > 92.5 µM (inactive)
[33]
  CC50: 3.43 µM (active)
[34]
  IC50: 2.54 µM (active)

## CCOc1cccc(CNc2ccc(O)cc2)c1OCc1ccc(Cl)cc1
[35]
  EC50: 25.2 µM (active)
[36]
  EC50: 29.4 µM (active)
[37]
  CC50: 37 µM (active)
[38]
  CC50: > 40 µM (active)
[39]
  IC50: > 50 µM (not active)
[40]
  IC50: 86 µM (inconclusive)

## Nc1ccc2c(c1)Cc1cc([N+](=O)[O-])ccc1-2
[41]
  IC50: 6.37 µM (active)
[42]
  IC50: > 49.8 µM (inactive)
